Reference: US6410557B1, “Dry skin remedies” (Daiichi Pharmaceutical Col, Ltd., priority 1999, dated 2002)
Where two headings read alike, the source gives them in different places.

Columns and labels:
Rat Foot Skin = test: Promoting action on the secretion of sweat in rat foot skin (starch-iodine reaction); type: in vivo
Description: A pharmacological activity test was carried out using 6 male Wister rats (body weight 199-238 g) in one group. After fasting for 1 day, rats were anesthetized by 50 mg/kg of sodium pentobarbital which was intraperitoneally administered, and an endotracheal tube was inserted to maintain the airway.
The soles of the right and left feet were cleaned with 70% ethanol, then 95% ethanol containing 2% of iodine was applied and allowed to dry. Castor oil containing 50% corn starch was coated to the soles of both feet, 5 minutes later a solvent alone or 1,3,10, and 30 mg/kg of cis-2-methylspiro(1,3-oxathiolane-5,3′)quinuclidine hydrochloride were administered intravenously.

Humans = tested on: Humans
Description: A multi-facility double blind comparison study was carried out for examination of perspiration promoting action on human, by preparing capsules containing 30 or 60 mg of cis-2-methylspiro(1,3-oxathiolane-5,3′)quinuclidine hydrochloride. 75 Americans (69 White, 1 Black, and 5 Hispanic subjects) were divided into 3 groups randomly. Each group received either one placebo capsule (0 mg), one 30 mg capsule, or one 60 mg capsule orally administered three times a day for 6 weeks. The increase of perspiration in each group was tested.

[1] = 30 mg capsule orally × 3/day for 6 weeks, 25 subjects
[2] = 60 mg capsule orally × 3/day for 6 weeks, 27 subjects

Row | SMILES | sweat secretion on the soles of both feet (number of colored points, degree of perspiration) (Rat Foot Skin; anesthetized male Wister rats, 1, 3, 10 and 30 mg/kg intravenously, FIG. 1) | Number of Subjects Showing perspiration (Humans; [1]) | Number of Subjects Showing perspiration (%) (Humans; [1]) | Number of Subjects Showing perspiration (Humans; [2]) | Number of Subjects Showing perspiration (%) (Humans; [2]) | sweat secretion of human (Humans; capsules, oral, three times a day for 6 weeks) | effect on the sweat secretion promoting activity of the quinuclidine hydrochloride (Rat Foot Skin; rat soles of feet)
1 | CC1OC2(CS1)CN1CCC2CC1.Cl (stereo not drawn) [cis-2-methylspiro(1,3-oxathiolane-5,3′)quinuclidine hydrochloride] | promoted depending on the dose level | 4 | 16.0% | 13 | 48.1% | remarkably promoted | 
2 | CN1[C@@H]2CC[C@H]1C[C@@H](OC(=O)C(CO)c1ccccc1)C2 (stereo partly shown) [atropine, reference compound] |  |  |  |  |  |  | blocks this activity
